Assay results from patent publication US20170190705A1, “Compositions and Methods for Inhibiting BMP” (THE BRIGHAM AND WOMAN'S HOSPITAL, INC., priority 2014, published 2017).
Where two headings read alike, the source gives them in different places.

What was measured:
Assay type in all cases: biochemical
[1] = biological target: LCK (Homo sapiens, UniProt P06239); experiment: Kinome profiling LCK; conditions: for inhibition at 0.1 µM: 100 nM
Procedure: (§1) . The kinome-wide selectivity was determined following the methods previously reported by Mohedas et al., ACS Chem Biol 2013, 8, 1291-1302 and Sanvitale et al., PLoS One 2013, 8, e62721.

[2] = biological target: LYNB (Homo sapiens, UniProt P07948); experiment: Kinome profiling LYNB; conditions: read-out: Inhibitory activity LYNB; for inhibition at 0.1 µM: 100 nM
LYNB, sequence (P07948 1-491 isoform P07948-2): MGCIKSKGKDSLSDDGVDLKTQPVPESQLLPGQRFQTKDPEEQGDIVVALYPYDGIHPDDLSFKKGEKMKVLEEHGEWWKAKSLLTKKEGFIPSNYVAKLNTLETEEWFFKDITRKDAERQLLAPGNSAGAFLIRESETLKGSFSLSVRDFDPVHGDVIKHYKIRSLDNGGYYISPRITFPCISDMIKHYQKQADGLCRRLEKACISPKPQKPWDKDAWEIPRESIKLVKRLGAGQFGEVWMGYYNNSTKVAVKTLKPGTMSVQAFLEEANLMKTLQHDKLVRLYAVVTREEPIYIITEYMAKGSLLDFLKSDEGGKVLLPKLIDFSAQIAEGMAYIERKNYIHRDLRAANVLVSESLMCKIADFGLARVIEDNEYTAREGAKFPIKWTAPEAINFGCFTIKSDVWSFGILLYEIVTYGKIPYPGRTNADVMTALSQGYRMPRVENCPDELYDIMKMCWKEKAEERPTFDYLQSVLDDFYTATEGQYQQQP
Procedure: as §1

[3] = biological target: PDGFRβ (Homo sapiens, UniProt P09619); experiment: Kinome profiling PDGFRβ; conditions: for inhibition at 0.1 µM: 100 nM
PDGFRβ, sequence (P09619 33-1106): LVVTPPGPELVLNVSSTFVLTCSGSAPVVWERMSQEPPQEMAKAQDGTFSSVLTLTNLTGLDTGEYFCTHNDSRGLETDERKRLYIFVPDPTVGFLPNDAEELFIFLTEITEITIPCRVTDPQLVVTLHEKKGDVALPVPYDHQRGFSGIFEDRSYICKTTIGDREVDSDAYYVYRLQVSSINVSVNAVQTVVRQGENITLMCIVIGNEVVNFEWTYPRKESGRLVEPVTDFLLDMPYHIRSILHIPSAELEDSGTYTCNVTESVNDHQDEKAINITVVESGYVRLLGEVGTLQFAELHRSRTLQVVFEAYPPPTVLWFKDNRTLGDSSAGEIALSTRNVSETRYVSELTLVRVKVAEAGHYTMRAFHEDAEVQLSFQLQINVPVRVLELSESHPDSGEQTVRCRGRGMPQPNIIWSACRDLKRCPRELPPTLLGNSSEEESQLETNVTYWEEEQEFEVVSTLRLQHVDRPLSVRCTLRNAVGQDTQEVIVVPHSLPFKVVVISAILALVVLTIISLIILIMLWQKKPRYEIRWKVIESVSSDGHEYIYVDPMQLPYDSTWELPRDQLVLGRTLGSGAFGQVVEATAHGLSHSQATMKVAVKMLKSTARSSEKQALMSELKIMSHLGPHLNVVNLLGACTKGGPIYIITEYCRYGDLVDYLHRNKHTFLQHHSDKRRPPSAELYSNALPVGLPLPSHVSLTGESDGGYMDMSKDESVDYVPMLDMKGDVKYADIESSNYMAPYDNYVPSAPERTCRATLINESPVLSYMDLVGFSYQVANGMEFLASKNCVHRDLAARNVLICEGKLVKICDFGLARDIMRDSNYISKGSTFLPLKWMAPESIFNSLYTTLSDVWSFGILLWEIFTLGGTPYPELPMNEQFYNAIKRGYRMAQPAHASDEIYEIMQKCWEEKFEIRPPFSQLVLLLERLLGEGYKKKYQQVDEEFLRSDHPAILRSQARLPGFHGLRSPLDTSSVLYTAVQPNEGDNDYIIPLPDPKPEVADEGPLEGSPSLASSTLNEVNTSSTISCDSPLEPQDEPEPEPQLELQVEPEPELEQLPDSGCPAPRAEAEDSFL
Procedure: as §1

[4] = biological target: PDGFRα (Homo sapiens, UniProt P16234); experiment: Kinome profiling PDGFRα; conditions: read-out: Inhibitory activity PDGFRα; for inhibition at 0.1 µM: 100 nM
PDGFRα, sequence (P16234 24-1089): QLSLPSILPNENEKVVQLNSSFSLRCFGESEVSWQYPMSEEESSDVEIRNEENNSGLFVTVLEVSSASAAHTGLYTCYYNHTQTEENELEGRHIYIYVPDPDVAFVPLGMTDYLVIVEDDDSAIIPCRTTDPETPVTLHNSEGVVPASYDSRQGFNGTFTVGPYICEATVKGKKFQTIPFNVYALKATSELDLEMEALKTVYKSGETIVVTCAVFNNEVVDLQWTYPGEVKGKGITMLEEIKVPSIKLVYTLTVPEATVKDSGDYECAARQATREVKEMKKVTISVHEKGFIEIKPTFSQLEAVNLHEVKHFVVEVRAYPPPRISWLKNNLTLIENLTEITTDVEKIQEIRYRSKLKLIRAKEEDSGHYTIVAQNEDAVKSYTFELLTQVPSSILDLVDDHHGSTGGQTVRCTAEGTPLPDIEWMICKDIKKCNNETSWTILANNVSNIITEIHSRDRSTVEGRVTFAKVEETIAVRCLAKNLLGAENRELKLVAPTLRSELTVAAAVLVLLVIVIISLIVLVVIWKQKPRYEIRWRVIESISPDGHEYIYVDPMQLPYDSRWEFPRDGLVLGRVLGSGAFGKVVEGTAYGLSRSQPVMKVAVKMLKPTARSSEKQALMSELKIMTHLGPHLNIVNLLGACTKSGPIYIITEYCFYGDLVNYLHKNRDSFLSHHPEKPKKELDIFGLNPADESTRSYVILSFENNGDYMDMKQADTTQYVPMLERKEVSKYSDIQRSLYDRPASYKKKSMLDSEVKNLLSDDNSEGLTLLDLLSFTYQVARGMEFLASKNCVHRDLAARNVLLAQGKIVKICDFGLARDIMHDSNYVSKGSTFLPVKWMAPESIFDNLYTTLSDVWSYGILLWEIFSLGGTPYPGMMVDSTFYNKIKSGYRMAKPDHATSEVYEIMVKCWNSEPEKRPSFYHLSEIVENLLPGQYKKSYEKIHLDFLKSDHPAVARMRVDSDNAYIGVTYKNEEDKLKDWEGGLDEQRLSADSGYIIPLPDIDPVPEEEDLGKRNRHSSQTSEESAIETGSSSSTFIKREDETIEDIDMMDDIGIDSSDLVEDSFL
Procedure: as §1

[5] = biological target: T1, EPHA3 (Homo sapiens, UniProt P29320); experiment: Kinome profiling EPHA3; conditions: read-out: Inhibitory activity EPHA3; for inhibition at 0.1 µM: 100 nM
T1 sequence (P29320 21-983): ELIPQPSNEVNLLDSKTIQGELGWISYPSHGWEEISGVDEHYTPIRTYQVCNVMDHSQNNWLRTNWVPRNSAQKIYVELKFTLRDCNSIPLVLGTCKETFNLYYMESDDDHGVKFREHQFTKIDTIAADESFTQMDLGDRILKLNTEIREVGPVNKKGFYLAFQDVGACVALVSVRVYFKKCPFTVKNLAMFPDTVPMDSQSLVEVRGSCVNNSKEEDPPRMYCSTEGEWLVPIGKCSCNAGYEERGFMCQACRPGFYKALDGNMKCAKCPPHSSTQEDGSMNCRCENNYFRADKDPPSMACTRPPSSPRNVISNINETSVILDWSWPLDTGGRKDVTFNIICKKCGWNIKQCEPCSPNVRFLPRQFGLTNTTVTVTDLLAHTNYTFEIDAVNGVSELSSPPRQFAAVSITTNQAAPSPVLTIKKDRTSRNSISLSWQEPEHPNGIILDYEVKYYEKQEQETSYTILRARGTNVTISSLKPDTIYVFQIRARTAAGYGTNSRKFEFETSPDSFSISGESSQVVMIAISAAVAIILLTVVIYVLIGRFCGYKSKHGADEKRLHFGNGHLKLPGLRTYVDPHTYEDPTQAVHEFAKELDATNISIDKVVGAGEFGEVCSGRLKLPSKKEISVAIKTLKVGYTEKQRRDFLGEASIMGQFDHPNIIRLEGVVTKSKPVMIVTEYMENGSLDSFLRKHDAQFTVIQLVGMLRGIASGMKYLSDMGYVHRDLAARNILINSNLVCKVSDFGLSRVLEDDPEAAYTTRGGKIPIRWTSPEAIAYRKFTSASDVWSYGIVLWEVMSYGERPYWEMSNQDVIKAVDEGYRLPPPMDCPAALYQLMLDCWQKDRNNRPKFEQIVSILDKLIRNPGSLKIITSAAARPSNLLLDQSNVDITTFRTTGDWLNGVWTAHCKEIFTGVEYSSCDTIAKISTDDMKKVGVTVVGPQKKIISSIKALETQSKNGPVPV
Procedure: as §1

[6] = biological target: PYK2 (Homo sapiens, UniProt Q14289); experiment: Kinome profiling PYK2; conditions: read-out: Inhibitory activity PYK2; for inhibition at 0.1 µM: 100 nM
PYK2, sequence (Q14289 whole entry): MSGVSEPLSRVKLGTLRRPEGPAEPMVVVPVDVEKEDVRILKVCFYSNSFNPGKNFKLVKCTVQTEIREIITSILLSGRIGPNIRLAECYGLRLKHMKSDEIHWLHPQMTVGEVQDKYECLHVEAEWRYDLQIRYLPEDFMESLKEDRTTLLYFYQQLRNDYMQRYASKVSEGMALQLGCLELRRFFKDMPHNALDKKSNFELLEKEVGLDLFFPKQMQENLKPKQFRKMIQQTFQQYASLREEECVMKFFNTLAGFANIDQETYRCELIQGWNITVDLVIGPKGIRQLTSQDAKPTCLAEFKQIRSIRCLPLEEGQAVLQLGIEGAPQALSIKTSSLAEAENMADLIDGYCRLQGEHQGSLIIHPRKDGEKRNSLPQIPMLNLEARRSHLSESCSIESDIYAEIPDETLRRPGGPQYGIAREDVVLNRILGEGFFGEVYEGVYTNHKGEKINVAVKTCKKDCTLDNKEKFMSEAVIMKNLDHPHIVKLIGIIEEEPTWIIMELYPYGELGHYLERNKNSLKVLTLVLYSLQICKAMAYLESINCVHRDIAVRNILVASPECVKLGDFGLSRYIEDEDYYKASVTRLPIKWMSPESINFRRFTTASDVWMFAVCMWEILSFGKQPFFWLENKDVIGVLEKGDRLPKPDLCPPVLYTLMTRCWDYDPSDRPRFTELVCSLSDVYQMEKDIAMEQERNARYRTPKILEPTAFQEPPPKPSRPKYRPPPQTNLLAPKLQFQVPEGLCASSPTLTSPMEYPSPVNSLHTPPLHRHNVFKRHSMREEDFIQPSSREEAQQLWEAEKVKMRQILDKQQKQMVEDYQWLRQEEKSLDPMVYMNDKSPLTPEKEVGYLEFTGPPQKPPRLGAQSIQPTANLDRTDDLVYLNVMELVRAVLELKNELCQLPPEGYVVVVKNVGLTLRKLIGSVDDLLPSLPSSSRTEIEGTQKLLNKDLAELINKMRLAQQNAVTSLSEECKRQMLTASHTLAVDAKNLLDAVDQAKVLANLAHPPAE
Procedure: as §1

[7] = biological target: T2, MST1 (Homo sapiens, UniProt Q13043); experiment: Kinome profiling MST1; conditions: read-out: Inhibitory activity MST1; for inhibition at 0.1 µM: 100 nM
T2 sequence (Q13043 1-487): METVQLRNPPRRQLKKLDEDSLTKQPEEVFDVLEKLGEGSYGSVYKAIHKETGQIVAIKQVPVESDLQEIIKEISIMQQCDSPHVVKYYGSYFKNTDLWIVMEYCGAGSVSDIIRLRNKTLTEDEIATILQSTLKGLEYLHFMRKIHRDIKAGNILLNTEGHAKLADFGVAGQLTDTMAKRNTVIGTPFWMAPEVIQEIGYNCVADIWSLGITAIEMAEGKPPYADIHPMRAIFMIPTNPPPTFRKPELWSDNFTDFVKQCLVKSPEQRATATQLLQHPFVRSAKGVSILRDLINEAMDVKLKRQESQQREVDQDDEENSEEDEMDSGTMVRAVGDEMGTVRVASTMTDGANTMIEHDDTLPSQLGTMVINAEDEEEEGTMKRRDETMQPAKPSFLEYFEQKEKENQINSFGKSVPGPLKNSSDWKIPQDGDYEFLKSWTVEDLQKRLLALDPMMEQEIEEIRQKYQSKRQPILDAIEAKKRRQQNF
Procedure: as §1

[8] = biological target: DYRK1B (Homo sapiens, UniProt Q9Y463); experiment: Kinome profiling DYRK1B; conditions: read-out: Inhibitory activity DYRK1B; for inhibition at 0.1 µM: 100 nM
Procedure: as §1

[9] = biological target: PKC-θ (Homo sapiens, UniProt Q04759); experiment: Kinome profiling PKC-θ; conditions: read-out: Inhibitory activity PKC-θ; for inhibition at 0.1 µM: 100 nM
Procedure: as §1

[10] = biological target: MSSK1 (Homo sapiens, UniProt Q9UPE1); experiment: Kinome profiling MSSK1; conditions: read-out: Inhibitory activity MSSK1; for inhibition at 0.1 µM: 100 nM
MSSK1, sequence (Q9UPE1 whole entry): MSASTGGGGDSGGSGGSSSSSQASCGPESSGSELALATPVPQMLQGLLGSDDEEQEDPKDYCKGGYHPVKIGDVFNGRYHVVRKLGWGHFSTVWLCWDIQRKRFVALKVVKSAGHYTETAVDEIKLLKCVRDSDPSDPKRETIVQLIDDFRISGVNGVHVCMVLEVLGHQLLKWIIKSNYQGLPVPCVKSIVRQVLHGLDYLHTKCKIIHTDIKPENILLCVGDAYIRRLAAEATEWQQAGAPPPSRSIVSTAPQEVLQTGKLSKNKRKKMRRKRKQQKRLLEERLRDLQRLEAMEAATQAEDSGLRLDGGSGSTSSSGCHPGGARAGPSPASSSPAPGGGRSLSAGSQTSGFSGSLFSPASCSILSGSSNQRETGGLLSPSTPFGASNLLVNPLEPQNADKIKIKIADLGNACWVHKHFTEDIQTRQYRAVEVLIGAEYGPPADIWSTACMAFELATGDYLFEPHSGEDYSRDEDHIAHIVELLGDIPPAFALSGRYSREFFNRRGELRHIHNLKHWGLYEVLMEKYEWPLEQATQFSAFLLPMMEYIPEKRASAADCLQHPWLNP
Procedure: as §1

[11] = biological target: CAMK2α (Homo sapiens, UniProt Q9UQM7); experiment: Kinome profiling CAMK2α; conditions: read-out: Inhibitory activity CAMK2α; for inhibition at 0.1 µM: 100 nM
Procedure: as §1

[12] = read-out: Inhibitory activity LCK
[13] = read-out: Inhibitory activity PDGFRβ
[14] = Table 4, read-out: Inhibitory Activity LCK
[15] = Table 4, read-out: Inhibitory Activity PDGFR-BETA

LCK, sequence (P06239 whole entry): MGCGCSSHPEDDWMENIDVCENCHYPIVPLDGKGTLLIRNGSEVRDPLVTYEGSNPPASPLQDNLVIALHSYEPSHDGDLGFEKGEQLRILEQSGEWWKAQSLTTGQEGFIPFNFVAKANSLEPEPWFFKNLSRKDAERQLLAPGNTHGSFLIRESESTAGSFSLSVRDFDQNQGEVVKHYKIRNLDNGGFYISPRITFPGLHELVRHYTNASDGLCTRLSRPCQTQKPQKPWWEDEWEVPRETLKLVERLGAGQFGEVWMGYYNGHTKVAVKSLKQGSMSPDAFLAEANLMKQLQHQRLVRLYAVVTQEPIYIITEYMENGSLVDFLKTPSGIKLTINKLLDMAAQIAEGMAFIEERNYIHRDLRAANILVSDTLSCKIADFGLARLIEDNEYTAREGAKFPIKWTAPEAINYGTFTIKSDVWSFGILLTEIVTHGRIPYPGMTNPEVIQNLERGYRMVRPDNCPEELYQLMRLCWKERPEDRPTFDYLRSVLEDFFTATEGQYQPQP

SMILES | inhibition at 0.1 µM [1, 12] [%] | inhibition at 1 µM [1, 12] [%] | inhibition at 0.1 µM [2] [%] | inhibition at 1 µM [2] [%] | inhibition at 0.1 µM [3, 13] [%] | inhibition at 1 µM [3, 13] [%] | inhibition at 0.1 µM [4] [%] | inhibition at 1 µM [4] [%] | inhibition at 0.1 µM [5] [%] | inhibition at 1 µM [5] [%] | inhibition at 0.1 µM [6] [%] | inhibition at 1 µM [6] [%] | inhibition at 0.1 µM [7] [%] | inhibition at 1 µM [7] [%] | inhibition at 0.1 µM [8] [%] | inhibition at 1 µM [8] [%] | inhibition at 0.1 µM [9] [%] | inhibition at 1 µM [9] [%] | inhibition at 0.1 µM [10] [%] | inhibition at 1 µM [10] [%] | also measured
COc1cc(-c2cc(-c3ccc(N4CCNCC4)cc3)cnc2N)cc(OC)c1OC [Compound 15, 5-(4-(piperazin-1-yl)phenyl)-3-(3,4,5-trimethoxyphenyl)pyridin-2-amine] | 65 | 86 | 35 | 82 | 47 | 77 | 39 | 76 | 8 | 31 | 10 | 14 | 3 | 10 | -1 | 4 | 1 | 1 | -2 | 0 | inhibition at 0.1 µM [11]: 1%; inhibition at 1 µM [11]: -1%
COc1cc(-c2cc(-c3ccc(N4CCNCC4)cc3)cnc2C)cc(OC)c1OC [Compound 10, 1-(4-(6-methyl-5-(3,4,5-trimethoxyphenyl)pyridin-3-yl)phenyl)piperazine] | 21 | 65 | 8 | 30 | 17 | 64 | 9 | 40 | 2 | 3 | 1 | 5 | 3 | 3 | 2 | 5 | 1 | 2 | 2 | 2 | inhibition at 0.1 µM [1, 14]: 21%; inhibition at 1 µM [1, 14]: 65%; inhibition at 0.1 µM [3, 15]: 17%; inhibition at 1 µM [3, 15]: 64%; inhibition at 0.1 µM [11]: -1%; inhibition at 1 µM [11]: -1%
